Source: ChEMBL document CHEMBL1201862, “PubChem BioAssay data set” (2004)
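Results reflect a 48-hour exposure of cells in 96-well plates to compound at five concentrations. Abbreviation: GI50, concentration required for 50% inhibition of growth.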 Active and inactive are the calls of the source. Cut-off read from the data, not from the text of the source: active = GI50 up to about 1.1 µM and inactive = higher.

How the values were obtained:
Test in all cases: inhibition of tumour cell growth, NCI panel, 48 h
BT-549 = system: BT-549
SW-620 = system: SW-620
NCI-H226 = system: NCI-H226
SF-268 = system: SF-268
HCT-116 = system: HCT-116
TK-10 = system: TK-10
EKVX = system: EKVX
MDA-MB-435 = system: MDA-MB-435
SR = system: SR
CCRF-CEM = system: CCRF-CEM
NCI/ADR-RES = system: NCI/ADR-RES
RPMI-8226 = system: RPMI-8226
SK-MEL-2 = system: SK-MEL-2
OVCAR-4 = system: OVCAR-4
HT-29 = system: HT-29
A549 = system: A549
SN12C = system: SN12C
PC-3 = system: PC-3
Malme-3M = system: Malme-3M
SF-295 = system: SF-295

Measured: GI50

CN=C(n1ccnc1)n1ccnc1
inactive: BT-549 > 100 µM | SW-620 > 100 µM | NCI-H226 > 100 µM | SF-268 > 100 µM | HCT-116 > 100 µM | TK-10 > 100 µM | EKVX > 100 µM | MDA-MB-435 > 100 µM | SR > 100 µM | CCRF-CEM > 100 µM | NCI/ADR-RES > 100 µM | RPMI-8226 > 100 µM | SK-MEL-2 > 100 µM | OVCAR-4 > 100 µM | HT-29 > 100 µM | A549 > 100 µM | SN12C > 100 µM | PC-3 > 100 µM | Malme-3M > 100 µM

CNC(=O)[C@H](Cc1ccccc1)NC(=O)N(CCC#N)CCN(C(=O)N[C@@H](Cc1ccccc1)C(=O)OC)c1ccccc1
inactive: BT-549 > 100 µM | SW-620 > 100 µM | NCI-H226 > 100 µM | SF-268 > 100 µM | HCT-116 > 100 µM | TK-10 > 100 µM | EKVX > 100 µM | MDA-MB-435 > 100 µM | SR > 100 µM | CCRF-CEM > 100 µM | NCI/ADR-RES > 100 µM | RPMI-8226 > 100 µM | SF-295 > 100 µM | SK-MEL-2 > 100 µM | OVCAR-4 > 100 µM | HT-29 > 100 µM | A549 > 100 µM | PC-3 > 100 µM | Malme-3M > 100 µM

O=C1NC(N2CCCC(CO)C2)=N/C1=C\c1ccc(O)cc1 (configuration not stated)
inactive: BT-549 > 100 µM | SW-620 > 100 µM | NCI-H226 > 100 µM | SF-268 > 100 µM | HCT-116 > 100 µM | TK-10 > 100 µM | EKVX > 100 µM | MDA-MB-435 > 100 µM | SR > 100 µM | CCRF-CEM > 100 µM | NCI/ADR-RES > 100 µM | RPMI-8226 > 100 µM | SF-295 > 100 µM | SK-MEL-2 > 100 µM | OVCAR-4 > 100 µM | HT-29 > 100 µM | A549 > 100 µM | SN12C > 100 µM | PC-3 > 100 µM | Malme-3M > 100 µM

COc1ccc(OC)c(NS(=O)(=O)c2ccc3nc(C)n(NS(=O)(=O)c4cc(OC)ccc4OC)c(=O)c3c2)c1
inactive: BT-549 70.1 µM | SW-620 96.4 µM | NCI-H226 > 100 µM | SF-268 > 100 µM | HCT-116 21.7 µM | TK-10 > 100 µM | EKVX > 100 µM | MDA-MB-435 14.3 µM | SR 14.8 µM | CCRF-CEM 75.7 µM | NCI/ADR-RES > 100 µM | RPMI-8226 20.8 µM | SF-295 > 100 µM | SK-MEL-2 > 100 µM | OVCAR-4 93.3 µM | HT-29 74.8 µM | SN12C > 100 µM | PC-3 78.9 µM | Malme-3M > 100 µM

Cn1nc(-c2ccccc2)nc1[N+](=O)[O-]
inactive: BT-549 > 10 µM | SW-620 > 10 µM | NCI-H226 > 10 µM | SF-268 > 10 µM | HCT-116 > 10 µM | TK-10 > 10 µM | EKVX > 10 µM | MDA-MB-435 > 10 µM | SR > 10 µM | CCRF-CEM > 10 µM | NCI/ADR-RES > 10 µM | RPMI-8226 > 10 µM | SF-295 > 10 µM | SK-MEL-2 > 10 µM | OVCAR-4 > 10 µM | HT-29 > 10 µM | A549 > 10 µM | SN12C > 10 µM | PC-3 > 10 µM | Malme-3M > 10 µM
